The record followed here is patent US9259487B2, “Transgenic non-human animal model of neurodegenerative disease” (Nagasaki University, priority 2011, dated 2016).

The structures appear in SMILES notation.

Common to all, as to format: in vivo, mouse
Assay [1] has as its system GgFF mice. Kind of assay: Rotarod dwelling time (motility function) after 15-min tMCAO. The settings on record: 8- to 16-week-old GgFF mice, selegiline 10 mg/kg intraperitoneally after 15-min tMCAO, 6 rpm and 12 rpm. (In general: Falling from the rotarod earlier than controls is read as motor impairment.)
For assay [2], the system named is GgFF mice. Kind of assay: Clinical score (motility dysfunction) after 15-min tMCAO. The settings on record: 8- to 16-week-old GgFF mice, selegiline 10 mg/kg intraperitoneally after 15-min tMCAO.
In assay [3] the test system is GgFF mice. The assay can be described thus: Clasping reflex score of aged mice deficient in prothymosin α in striatum.
The test system of assay [4] is GgFF mice. Kind of assay: Survival ratio after 15-min transient middle cerebral artery occlusion (tMCAO). The settings on record: 8- to 16-week-old GgFF mice, administration group.
For assay [5], the system named is GgFF mice. Kind of assay: Rotarod dwelling time (30 rpm, 40 rpm) of aged mice deficient in prothymosin α in striatum.

Take `C#CCN(C)[C@H](C)Cc1ccccc1` [selegiline]: in the assay with GgFF mice [1], the “motility function (dwelling time on Rotarod, Latency to fall) vs non-administration group” value is reported as “improved motility function”. In addition, the “motility dysfunction (Clinical score)” value in the assay on GgFF mice [2] is “remarkably improved”. In addition, in the assay with GgFF mice [3] (selegiline 10 mg/kg intraperitoneally), the “clasping scores vs before administration, acute (within 24 hr)” value is on record as “tended to improve”. Besides, in the assay with GgFF mice [4] (selegiline 10 mg/kg intraperitoneally after 15-min tMCAO), the survival ratio result is on record as “markedly-improved”. Besides, the “dwelling time on the Rotarod vs before administration, acute (within 24 hr)” value with GgFF mice [5] (aged GgFF mice, selegiline 10 mg/kg intraperitoneally, 30 rpm and 40 rpm) is given as “tended to be long”.

Turning to `CC12CC3CC(C)(C1)CC(N)(C3)C2` [memantine], in the assay on GgFF mice [3] (memantine 10 mg/kg intraperitoneally every day from Day 1 to Day 7), the “symptom (clasping scores), chronic administration” value is “remarkable recovery”. The “symptom (motility function by Rotarod), chronic administration” value in the assay on GgFF mice [5] (aged GgFF mice, memantine 10 mg/kg intraperitoneally every day from Day 1 to Day 7, 30 rpm and 40 rpm) is on record as “remarkable recovery”. For the same compound, the “motility function, acute (within 24 hr)” value with GgFF mice [5] (aged GgFF mice, memantine 10 mg/kg intraperitoneally, 24 hr after the administration) is given as “most recovered”.

For `Cl.Oc1cc2c(cc1O)C(c1ccccc1)CNCC2` (racemic) [SKF38393, (±)-1-phenyl-2,3,4,5-tetrahydro-1H-3-benzazepine-7,8-diol HCl], in the assay on GgFF mice [5] (20- to 30-week-old GgFF mice, 5 hr after intraperitoneal administration of 30 mg/kg, 30 rpm, vs vehicle), the “motility dysfunction in the Rotarod test” value is reported as “significantly improved”.

Turning to `CCCN[C@H]1CCc2nc(N)sc2C1` [pramipexole], in the assay with GgFF mice [4] (pramipexole 0.01 mg/kg intraperitoneally after 15-min tMCAO), the survival ratio was found to be 75%.
